In DBAASP one finds MIC data, which are given here for five compounds.

What is called MIC is the lowest concentration found to suppress growth.

Converted amounts (≈) assume the structure as drawn. “And” between values parts separate entries of the source, which are not always exact repeats. Equal values may be shown once. Where only a bound is given, the exact number is not on record here.

Among the test systems are Bacillus subtilis 168; Escherichia coli B; Staphylococcus aureus; Escherichia coli LEC001; Klebsiella pneumoniae M6; Streptococcus mutans.
Holding throughout (test): ≥ marks a high value that may be exact or a test limit, other limits are often not marked, values filed in µg/mL are converted to µM
The subject of assay [1] is Bacillus licheniformis X39.
The test system of assay [2] is Candida albicans ATCC 2002.
Assay [3] deals with Enterococcus faecalis 981.
Assay [4] concerns Enterococcus faecium 091299.
The test system of assay [5] is Escherichia coli ATCC 25922.
Assay [6] relates to Psychrobacter faecalis X29.
Assay [7] relates to Rhodococcus rhodochrous X15.
In assay [8] the test system is Staphylococcus aureus ATCC 25923.
The test system of assay [9] is Staphylococcus carnosus KHS.
Assay [10] has as its system Candida albicans F7-39/IDE99.
For assay [11], the system named is Listeria monocytogenes KCTC 3710.
Assay [12] concerns Pseudomonas aeruginosa 3320.
Assay [13] concerns Pseudomonas aeruginosa ATCC 15692.
The subject of assay [14] is Pseudomonas aeruginosa ATCC 27853.
In assay [15] the test system is Staphylococcus aureus 547582.
For assay [16], the system named is Staphylococcus aureus ATCC 29213.
Assay [17] concerns Acinetobacter baumannii ATCC 17978.
For assay [18], the system named is Acinetobacter baumannii AYE.
The subject of assay [19] is Candida albicans ATCC 90028.
Assay [20] deals with Escherichia coli ATCC 25726.
Assay [21] relates to Escherichia coli NCTC 12923.
Assay [22] concerns Klebsiella pneumoniae NCTC 13368.
For assay [23], the system named is Pseudomonas aeruginosa NCTC 13437.
For assay [24], the system named is Pseudomonas aeruginosa PAO1.
Assay [25] deals with Staphylococcus aureus ATCC 9144.
The subject of assay [26] is Staphylococcus aureus NCTC 13616.
For assay [27], the system named is Staphylococcus aureus USA 300.
Assay [28] deals with Acinetobacter baumannii I NM8.
Assay [29] deals with Candida albicans NCTC 3179.
Assay [30] has as its system Enterococcus faecalis NCTC 12697.
The subject of assay [31] is Fusobacterium nucleatum NCTC 10562.
Assay [32] relates to Klebsiella pneumoniae ATCC 700603.
The subject of assay [33] is Pseudomonas aeruginosa PAO239.
The subject of assay [34] is Stenotrophomonas maltophilia.
Assay [35] has as its system Streptococcus mutans ATCC 10449.
In assay [36] the test system is Lacticaseibacillus casei ATCC 4646.
Assay [37] deals with Streptococcus gordonii Challis DL1.
The subject of assay [38] is Streptococcus mitis ATCC 903.
Assay [39] has as its system Streptococcus sanguinis NY101.
The test system of assay [40] is Veillonella atypica PK1910.

For `CC[C@H](C)[C@H](NC(=O)[C@H](CC(C)C)NC(=O)[C@@H]1CCCN1C(=O)[C@H](CC(C)C)NC(=O)[C@@H](N)Cc1ccccc1)C(=O)N[C@@H](C)C(=O)N[C@@H](CO)C(=O)N[C@@H](CC(C)C)C(=O)N[C@@H](C)C(=O)N[C@@H](C)C(=O)N[C@@H](CC(N)=O)C(=O)N[C@@H](Cc1ccccc1)C(=O)N[C@H](C(=O)N1CCC[C@H]1C(=O)N[C@@H](CCCCN)C(=O)N[C@H](C(=O)N[C@@H](Cc1ccccc1)C(=O)N[C@H]1CSSC[C@@H](C(=O)O)NC(=O)[C@H](CCCCN)NC(=O)[C@H](CCCCN)NC(=O)[C@H]([C@@H](C)O)NC(=O)[C@H]([C@@H](C)CC)NC(=O)[C@H](CCCCN)NC1=O)[C@@H](C)CC)C(C)C` [FLPLIASLAANFVPKIFCKITKKC], the MIC was 2.4 µM (≈ 6.39 µg/mL) in assay [1]; 2.4 µM (≈ 6.39 µg/mL) in assay [2]; 19 µM (≈ 50.6 µg/mL) in assay [3]; 19 µM (≈ 50.6 µg/mL) in assay [4]; 150 µM (≈ 400 µg/mL) in assay [5]; 4.8 µM (≈ 12.8 µg/mL) in assay [6]. For the same compound, the MIC in [7] amounted to 1.2 µM (≈ 3.2 µg/mL); in [8] it was 1.2 µM (≈ 3.2 µg/mL); in assay [9], 4.8 µM (≈ 12.8 µg/mL).
For the compound `CSCC[C@H](NC(=O)CNC(=O)[C@H](Cc1ccccc1)NC(=O)CN)C(=O)N[C@@H](C)C(=O)N[C@@H](CC(C)C)C(=O)N[C@@H](CCCCN)C(=O)N[C@@H](CC(C)C)C(=O)N[C@@H](CC(C)C)C(=O)N[C@@H](CCCCN)C(=O)N[C@@H](CCCCN)C(=O)N[C@H](C(=O)N[C@@H](CC(C)C)C(N)=O)C(C)C` [GFGMALKLLKKVL], the MIC is 1.3 µM (≈ 1.84 µg/mL) against Bacillus subtilis 168; 6.3 µM (≈ 8.93 µg/mL) in assay [10]; 6.25 µM (≈ 8.86 µg/mL) in [5]; 3 µM (≈ 4.25 µg/mL) with Escherichia coli B; 25 µM (≈ 35.4 µg/mL) in assay [11]; 8 µM (≈ 11.3 µg/mL) in [12]. Besides, the MIC was 6.25 µM (≈ 8.86 µg/mL) in [13]; 6.25 µM (≈ 8.86 µg/mL) in assay [14]; 8 µM (≈ 11.3 µg/mL) in [15]; 3.13 µM (≈ 4.43 µg/mL) in assay [8]; 3.13 µM (≈ 4.43 µg/mL) in assay [16]; 3.7 µM and 4.43 µM against Staphylococcus aureus.
For `CSCC[C@H](NC(=O)[C@H](CCSC)NC(=O)[C@H](CCCCN)NC(=O)CNC(=O)[C@@H](NC(=O)[C@@H](NC(=O)[C@H](CCCCN)NC(=O)[C@H](CC(C)C)NC(=O)CNC(=O)[C@H](Cc1ccccc1)NC(=O)[C@H](CCCCN)NC(=O)[C@H](Cc1ccccc1)NC(=O)[C@H](C)NC(=O)[C@H](CCCCN)NC(=O)CNC(=O)[C@H](CC(C)C)NC(=O)[C@H](CC(C)C)NC(=O)[C@H](CO)NC(=O)CNC(=O)[C@H](CC(C)C)NC(=O)CN)[C@@H](C)O)C(C)C)C(=O)NCC(=O)NCC(=O)N[C@@H](C)C(=O)N1CCC[C@H]1C(=O)N[C@@H](CCCN=C(N)N)C(=O)N[C@@H](CCC(=O)O)C(=O)N[C@@H](CCC(N)=O)C(=O)O` [GLGSLLGKAFKFGLKTVGKMMGGAPREQ], the MIC in assay [17] worked out at 1.39 µM (≈ 4 µg/mL); in [18] it was 1.39 µM (≈ 4 µg/mL); in [19], 25 µM (≈ 72 µg/mL); in assay [20], 3 µM (≈ 8.64 µg/mL); with Escherichia coli LEC001, 2.78 µM (≈ 8 µg/mL); in [21] it was 2.78 µM (≈ 8 µg/mL). In addition, the MIC against Klebsiella pneumoniae M6 is 5.56 µM (≈ 16 µg/mL); in assay [22], 11.1 µM (≈ 32 µg/mL); in [23] it was at least 44.5 µM; in assay [24] it was over 44.5 µM; in assay [8], 6 µM (≈ 17.3 µg/mL); in assay [25] it was 1.39 µM (≈ 4 µg/mL). Moreover, the MIC in assay [26] came out at 1.39 µM (≈ 4 µg/mL); in assay [27] it was 2.78 µM (≈ 8 µg/mL).
For the compound `CC[C@H](C)[C@H](NC(=O)[C@H](CCCCN)NC(=O)[C@H](CC(C)C)NC(=O)[C@H](C)NC(=O)[C@H](CCCCN)NC(=O)CNC(=O)[C@H](CC(C)C)NC(=O)[C@@H](NC(=O)[C@H](CO)NC(=O)CNC(=O)[C@H](CC(C)C)NC(=O)CN)C(C)C)C(=O)NCC(=O)N[C@@H](C)C(=O)N[C@@H](CC(N)=O)C(=O)N[C@@H](CC(C)C)C(=O)N[C@@H](CC(C)C)C(N)=O` [GLGSVLGKALKIGANLL], the MIC in assay [28] is 6 µM (≈ 9.74 µg/mL); in assay [29], at least 50 µM; in assay [30], at least 100 µM; in assay [5], 12.5 µM (≈ 20.3 µg/mL); in [31] it was 6.25 µM (≈ 10.1 µg/mL); in assay [32], 25 µM (≈ 40.6 µg/mL). The MIC stood at 25 µM (≈ 40.6 µg/mL) in assay [14]; 25 µM (≈ 40.6 µg/mL) in assay [33]; 6 µM (≈ 9.74 µg/mL) in [8]; 4 µM (≈ 6.49 µg/mL) in [34]; 3.1 µM (≈ 5.03 µg/mL) in [35].
Regarding `CC(C)C[C@H](NC(=O)[C@H](CC(C)C)NC(=O)[C@H](Cc1cnc[nH]1)NC(=O)[C@H](Cc1cnc[nH]1)NC(=O)[C@H](CC(C)C)NC(=O)[C@H](CCCCN)NC(=O)[C@H](CCCCN)NC(=O)[C@H](CC(C)C)NC(=O)[C@H](CC(C)C)NC(=O)[C@H](CCCN=C(N)N)NC(=O)[C@H](CCCN=C(N)N)NC(=O)[C@H](Cc1c[nH]c2ccccc12)NC(=O)[C@@H](N)CCCN=C(N)N)C(=O)N[C@@H](Cc1cnc[nH]1)C(=O)NCC(=O)NCC(=O)NCC(=O)N[C@@H](Cc1ccccc1)C(=O)N[C@@H](CCCCN)C(=O)N[C@@H](CCCCN)C(=O)N[C@@H](Cc1ccccc1)C(=O)N[C@@H](Cc1c[nH]c2ccccc12)C(=O)N[C@@H](CCCCN)C(=O)N[C@@H](Cc1c[nH]c2ccccc12)C(=O)N[C@@H](Cc1ccccc1)C(=O)N[C@@H](CCCN=C(N)N)C(=O)N[C@@H](CCCN=C(N)N)C(=O)N[C@@H](Cc1ccccc1)C(N)=O` [RWRRLLKKLHHLLHGGGFKKFWKWFRRF], the MIC was 2.14 µM (≈ 8 µg/mL) in [36]; 4.28 µM (≈ 16 µg/mL) in assay [37]; 8.57 µM (≈ 32 µg/mL) in assay [38]; 1.51 µM (≈ 5.66 µg/mL) in the assay with Streptococcus mutans; 4.28 µM (≈ 16 µg/mL) in assay [39]; 2.14 µM (≈ 8 µg/mL) in assay [40].
